Laboratory results taken from patent US20220184060A1, “PHARMACEUTICAL COMPOSITION COMPRISING SPHERICAL AGGLOMERATES OF TIMAPIPRANT” (Chiesi Farmaceutici S.p.A., priority 2018, published 2022).
Where “and” joins values, the source holds several entries; their conditions need not be identical. Identical values can stand only once.

Assays:
Format in all cases: physicochemical
[1] = Specific surface area (SSA) by BET nitrogen adsorption (TriStar, Micromeritics); conditions: degassing 2 hours at 40° C.
Description: The specific surface areas (SSA) of spherical agglomerates of timapiprant obtained according to Examples 3, 5,7 and the micronized timapiprant were measured was determined by BET nitrogen adsorption using the TriStar of Micromeritics apparatus according to following parameters: • Isotherm, Adsorbing/Desorbing Run: 0 to 1 p/p0 • Vials: ⅜ Inch, Degassing Pre-analysis: 2 hours at 40° C., Nitrogen as adsorbate • Preparation: Evacuation Rate 10 mmHg/s; Unrestricted evacuation from 5 mmHg • Vacuum setpoint: 10 mmHg, Evacuation time: 1 hour • Leak Test Duration: 120 s, Outgas Test Duration: 180 s • Measure p0 at intervals during the analysis, Enter the analysis bath temperature: […]77 kelvin • Equilibration Interval: 5 s; Minimum Equilibration Delay at p/p0≥0,995 per 600 s.

[2] = Primary particle size distribution by laser diffraction (Malvern Mastersizer 2000) after break up of spherical agglomerates; conditions: for PSD d (0.1), mean result / PSD d (0.5), mean result: mean of 10 acquisitions, primary particles after sonication in water; for PSD d (0.1) / PSD d (0.5): single acquisition (Measure 1-10), primary particles, agglomerates dispersed in water by 10 minutes sonication, 1500 rpm
Description: The primary particle size distribution results are produced by means of a Malvern 2000 laser diffraction equipment by the analysis of the primary particles in suspension.
The particle size distribution laser diffraction measures were performed using a Malvern Mastersizer 2000 equipped with a Hydro 2000S cell for the wet suspension of the Timapiprant primary particles. The spherical agglomerates obtained according to the Examples 3 and 5, were dispersed in water by means of 10 minutes sonication and then added to the cell, previously filled with water, until an obscuration within 5-10% was obtained.

[3] = Flowability of the blend material (API with tablet excipients) before compression; conditions: blend material of API with the excipients of Table 3; for Flow properties of the blend (in words): suitability for direct compression
Description: The spherical agglomerates of timapiprant or the micronized timapiprant, together with the microcrystalline cellulose, the croscarmellose sodium, the poloxamer, the sodium lauryl sulphate and the colloidal silicon dioxide in the above amounts, are sieved in a sieve of 1.2 mm. The lactose monohydrate is then added, and the resulting mixture is blended in a free fall blender for at least 15 minutes. The magnesium stearate is added to the obtained mixture which is further blended in the free fall blender for additional 3 minutes.

Structure (SMILES)	SSA (specific surface area) [1]	PSD d (0.1), mean result [2] [μm]	PSD d (0.5), mean result [2] [μm]	PSD d (0.1) [2]	PSD d (0.5) [2]	Flowability (s/100 g) ([3]; listed as Spherical agglomerates of timapirpant) [sec s/100 g]	Flow properties of the blend (in words) [3]	Flowability (s/100 g) [3]	SSA (specific surface area) ([1]; listed as micronized timapiprant)
Cc1c(Cc2ccc3ccccc3n2)c2cc(F)ccc2n1CC(=O)O [Spherical agglomerates of timapiprant of Example 3] [5-fluoro-2-methyl-3-(quinolin-2-ylmethyl)-1H-indol-1-yl)acetic acid]	13.1 m^2/g	0.28	0.56	0.28 μm and 0.275 μm and 0.278 μm and 0.279 μm	0.56 μm and 0.555 μm and 0.561 μm and 0.559 μm	–	–	–	–
Cc1c(Cc2ccc3ccccc3n2)c2cc(F)ccc2n1CC(=O)O [Spherical agglomerates of timapiprant of Example 7] [5-fluoro-2-methyl-3-(quinolin-2-ylmethyl)-1H-indol-1-yl)acetic acid]	15.5 m^2/g	–	–	–	–	–	–	–	–
Cc1c(Cc2ccc3ccccc3n2)c2cc(F)ccc2n1CC(=O)O [Spherical agglomerates of timapiprant of Example 5] [5-fluoro-2-methyl-3-(quinolin-2-ylmethyl)-1H-indol-1-yl)acetic acid]	10.1 m^2/g	0.31	0.64	0.314 μm and 0.315 μm	0.64 μm and 0.642 μm and 0.638 μm and 0.641 μm and 0.639 μm	4	good flowability	–	–
Cc1c(Cc2ccc3ccccc3n2)c2cc(F)ccc2n1CC(=O)O [Micronized Timapiprant, reference compound]	8.0 m^2/g and 7.8 m^2/g	–	–	–	–	–	very poor flow properties	∞	less than 8.5 m^2/g
